Data published in patent publication US20080234262A1 (Wyeth, priority 2007, published 2008).

Target: PI3K (Homo sapiens, UniProt P42336)
Test: Fluorescence polarization assay for PI3K;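 also: PI3K kinase reaction on PIP2 with ATP, 30-60 min, product sensed by GST-GRP with red probe in fluorescence polarization (mP), controls without enzyme and at zero time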
Assay type: biochemical
Conditions: PI3Kα; read-out: PI3Kα IC50

PI3K, sequence (P42336 whole entry): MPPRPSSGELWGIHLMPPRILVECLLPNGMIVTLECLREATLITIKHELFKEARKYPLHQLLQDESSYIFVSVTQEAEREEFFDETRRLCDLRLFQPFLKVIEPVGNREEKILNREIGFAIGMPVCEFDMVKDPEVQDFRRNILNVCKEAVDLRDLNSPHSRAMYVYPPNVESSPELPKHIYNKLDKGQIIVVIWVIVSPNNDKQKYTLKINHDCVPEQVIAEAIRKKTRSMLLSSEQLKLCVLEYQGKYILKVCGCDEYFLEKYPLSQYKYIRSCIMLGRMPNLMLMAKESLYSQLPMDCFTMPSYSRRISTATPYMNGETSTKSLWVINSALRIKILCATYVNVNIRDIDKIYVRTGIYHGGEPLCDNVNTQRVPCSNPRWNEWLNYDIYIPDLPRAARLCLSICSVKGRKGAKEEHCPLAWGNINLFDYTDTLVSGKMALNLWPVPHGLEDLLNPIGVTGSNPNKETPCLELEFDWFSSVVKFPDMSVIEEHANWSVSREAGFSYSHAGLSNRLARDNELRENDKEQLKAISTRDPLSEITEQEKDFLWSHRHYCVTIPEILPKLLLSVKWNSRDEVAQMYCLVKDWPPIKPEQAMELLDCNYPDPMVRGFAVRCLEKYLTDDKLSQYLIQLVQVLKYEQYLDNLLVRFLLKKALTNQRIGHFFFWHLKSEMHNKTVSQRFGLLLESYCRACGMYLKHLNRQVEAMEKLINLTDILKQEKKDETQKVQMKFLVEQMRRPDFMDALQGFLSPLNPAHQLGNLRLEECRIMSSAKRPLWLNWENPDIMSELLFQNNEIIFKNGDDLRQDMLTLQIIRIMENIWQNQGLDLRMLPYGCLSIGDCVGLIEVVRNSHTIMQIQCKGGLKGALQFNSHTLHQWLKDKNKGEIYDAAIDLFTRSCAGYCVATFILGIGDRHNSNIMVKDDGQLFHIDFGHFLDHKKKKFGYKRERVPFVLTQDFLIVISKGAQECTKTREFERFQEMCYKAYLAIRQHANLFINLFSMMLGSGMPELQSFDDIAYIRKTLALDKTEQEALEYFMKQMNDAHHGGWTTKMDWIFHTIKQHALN
PI3K, sequence (P27986 whole entry partner): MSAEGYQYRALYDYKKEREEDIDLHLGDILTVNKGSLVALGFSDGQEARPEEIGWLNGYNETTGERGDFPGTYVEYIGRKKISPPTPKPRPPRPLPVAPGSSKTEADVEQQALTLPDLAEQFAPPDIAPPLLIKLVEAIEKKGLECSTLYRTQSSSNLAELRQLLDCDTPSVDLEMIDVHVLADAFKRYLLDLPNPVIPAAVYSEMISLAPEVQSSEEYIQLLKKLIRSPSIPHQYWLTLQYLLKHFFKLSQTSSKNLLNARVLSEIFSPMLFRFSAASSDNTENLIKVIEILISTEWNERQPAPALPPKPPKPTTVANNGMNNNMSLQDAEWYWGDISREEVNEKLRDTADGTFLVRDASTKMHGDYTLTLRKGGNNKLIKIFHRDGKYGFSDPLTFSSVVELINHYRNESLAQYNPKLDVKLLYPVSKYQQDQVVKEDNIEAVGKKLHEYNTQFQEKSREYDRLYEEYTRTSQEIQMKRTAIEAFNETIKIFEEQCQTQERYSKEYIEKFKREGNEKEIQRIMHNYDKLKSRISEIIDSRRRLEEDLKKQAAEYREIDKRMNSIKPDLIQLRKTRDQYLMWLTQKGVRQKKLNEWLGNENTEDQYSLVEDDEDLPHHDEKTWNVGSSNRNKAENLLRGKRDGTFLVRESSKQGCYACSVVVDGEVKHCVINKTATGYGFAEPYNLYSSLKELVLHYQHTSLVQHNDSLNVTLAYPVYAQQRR

Row | IC50 [nM] | SMILES
1 | 424 | CCNC(=O)Nc1ccc(-c2nc(N3CCOCC3)c3cnn(C4CCN(Cc5cccnc5)CC4)c3n2)cc1F [Example 372, 1-ethyl-3-(2-fluoro-4-{4-morpholin-4-yl-1-[1-(pyridin-3-ylmethyl)piperidin-4-yl]-1H-pyrazolo[3,4-d]pyrimidin-6-yl}phenyl)urea]
2 | 2880 | FC(F)(F)CN1CCC(n2ncc3c(N4CCOCC4)nc(-c4ccc5[nH]ccc5c4)nc32)CC1 [Compound 715, 6-(1H-indol-5-yl)-4-morpholin-4-yl-1-[1-(2,2,2-trifluoroethyl)piperidin-4-yl]-1H-pyrazolo[3,4-d]pyrimidine]
3 | 939 | c1cc2cc(-c3nc(N4CCOCC4)c4cn[nH]c4n3)ccc2[nH]1 [Compound 929, 6-(1H-indol-5-yl)-4-morpholin-4-yl-1H-pyrazolo[3,4-d]pyrimidine]
4 | 104 | CNC(=O)Nc1ccc(-c2nc(N3CCOCC3)c3cn[nH]c3n2)cc1 [Compound 927, 1-methyl-3-[4-(4-morpholin-4-yl-1H-pyrazolo[3,4-d]pyrimidin-6-yl)phenyl]urea]
5 | 199 | CNC(=O)Nc1ccc(-c2nc(N3CCOCC3)c3cnn(C4CCN(Cc5ccccc5)CC4)c3n2)cc1F [Example 348, 1-{4-[1-(1-benzylpiperidin-4-yl)-4-morpholin-4-yl-1H-pyrazolo[3,4-d]pyrimidin-6-yl]-2-fluorophenyl}-3-methylurea]
6 | 548 | CNC(=O)Nc1ccc(-c2nc(N3CCOCC3)c3cnn(C4CCN(C(=O)c5cccnc5)CC4)c3n2)cc1 [Example 226, 1-methyl-3-(4-{4-morpholin-4-yl-1-[1-(pyridin-3-ylcarbonyl)piperidin-4-yl]-1H-pyrazolo[3,4-d]pyrimidin-6-yl}phenyl)urea]
7 | 750 | COC(=O)Nc1ccc(-c2nc(N3CCOCC3)c3cnn(C4CCN(Cc5ccc(F)cc5)CC4)c3n2)cc1 [Compound 959, methyl (4-{1-[1-(4-fluorobenzyl)piperidin-4-yl]-4-morpholin-4-yl-1Hpyrazolo[3,4-d]pyrimidin-6-yl}phenyl)carbamate]
8 | 14 | O=C(Nc1ccccc1)Nc1ccc(-c2nc(N3CCOCC3)c3cnn(C4CCN(C(=O)c5cccnc5)CC4)c3n2)cc1 [Example 343, 1-(4-{4-morpholin-4-yl-1-[1-(pyridin-3-ylcarbonyl)piperidin-4-yl]-1H-pyrazolo[3,4-d]pyrimidin-6-yl}phenyl)-3-phenylurea]
9 | 198 | CNC(=O)Nc1ccc(-c2nc(N3CCOCC3)c3cnn(C4CCN(C(=O)c5ccc[n+]([O-])c5)CC4)c3n2)cc1 [Example 328, 1-methyl-3-[4-(4-morpholin-4-yl-1-{1-[(1-oxidopyridin-3-yl)carbonyl]piperidin-4-yl}-1H-pyrazolo[3,4-d]pyrimidin-6-yl)phenyl]urea]
10 | 2270 | CN(C)CC(=O)Nc1ccc(-c2nc(N3CCOCC3)c3cn[nH]c3n2)cc1 [Compound 958, N2,N2-dimethyl-N-[4-(4-morpholin-4-yl-1H-pyrazolo[3,4-d]pyrimidin-6-yl)phenyl]glycinamide]
11 | 480 | CN(C)CC=CC(=O)N1CCC(n2ncc3c(N4CCOCC4)nc(-c4ccc5[nH]ccc5c4)nc32)CC1 [Compound 957, 4-{4-[6-(1H-indol-5-yl)-4-morpholin-4-yl-1H-pyrazolo[3,4-d]pyrimidin-1-yl]piperidin-1-yl}-N,N-dimethyl-4-oxobut-2-en-1-amine]
12 | 404 | CC(=O)Nc1ccc(-c2nc(N3CCOCC3)c3cnn(C4CCN(Cc5cccnc5)CC4)c3n2)cc1 [Example 158, N-(4-{4-morpholin-4-yl-1-[1-(pyridin-3-ylmethyl)piperidin-4-yl]-1H-pyrazolo[3,4-d]pyrimidin-6-yl}phenyl)acetamide]

Second part, the molecule before the results:

Row | SMILES | IC50 [nM]
13 | Nc1ccc(-c2nc(N3CCOCC3)c3cn[nH]c3n2)cc1 [Compound 531, 4-(4-morpholin-4-yl-1H-pyrazolo[3,4-d]pyrimidin-6-yl)aniline] | 1610
14 | CNC(=O)Nc1ccc(-c2nc(N3CCOCC3)c3cnn(-c4ccccc4)c3n2)cc1 [Compound 543, 1-methyl-3-[4-(4-morpholin-4-yl-1-phenyl-1H-pyrazolo[3,4-d]pyrimidin-6-yl)phenyl]urea] | 50
15 | NC(=O)Nc1cccc(-c2nc(N3CCOCC3)c3cnn(C4CCN(Cc5ccccc5)CC4)c3n2)c1 [Compound 229, N-{3-[1-(1-benzylpiperidin-4-yl)-4-morpholin-4-yl-1H-pyrazolo[3,4-d]pyrimidin-6-yl]phenyl}urea] | 2170
16 | Oc1cncc(-c2nc(N3CCOCC3)c3cnn(C4CCN(Cc5ccccc5)CC4)c3n2)c1 [Compound 250, 5-[1-(1-benzylpiperidin-4-yl)-4-morpholin-4-yl-1H-pyrazolo[3,4-d]pyrimidin-6-yl]pyridin-3-ol] | 37
17 | Nc1cccc(-c2nc(N3CCOCC3)c3cnn(C4CCN(C(=O)c5cccnc5)CC4)c3n2)n1 [Compound 680, 6-{4-morpholin-4-yl-1-[1-(pyridin-3-ylcarbonyl)piperidin-4-yl]-1H-pyrazolo[3,4-d]pyrimidin-6-yl}pyridin-2-amine] | 4990
18 | O=C(O)Cc1ccc(-c2nc(N3CCOCC3)c3cnn(C4CCN(Cc5ccccc5)CC4)c3n2)cc1 [Compound 353, {4-[1-(1-benzylpiperidin-4-yl)-4-morpholin-4-yl-1H-pyrazolo[3,4-d]pyrimidin-6-yl]phenyl}acetic acid] | 1260
19 | Nc1ccc(-c2nc(N3CCOCC3)c3cn[nH]c3n2)cc1 [Example 285, 4-(4-morpholin-4-yl-1H-pyrazolo[3,4-d]pyrimidin-6-yl)aniline] | 1610
20 | COC(=O)Nc1ccc(-c2nc(N3CCOCC3)c3cnn(C4CCN(C(=O)N5CCN(C)CC5)CC4)c3n2)cc1 [Compound 692, methyl [4-(1-{1-[(4-methylpiperazin-1-yl)carbonyl]piperidin-4-yl}-4-morpholin-4-yl-1H-pyrazolo[3,4-d]pyrimidin-6-yl)phenyl]carbamate] | 725
21 | COC(=O)Nc1ccc(-c2nc(N3CCOCC3)c3cnn(C4CCN(C(=O)c5ccc(F)cc5F)CC4)c3n2)cc1 [Compound 693, methyl (4-{1-[1-(2,4-difluorobenzoyl)piperidin-4-yl]-4-morpholin-4-yl-1H-pyrazolo[3,4-d]pyrimidin-6-yl}phenyl)carbamate] | 800
22 | COC(=O)Nc1ccc(-c2nc(N3CCOCC3)c3cnn(C4CCCCO4)c3n2)cc1 (centres unmarked) [Compound 274, methyl {4-[4-morpholin-4-yl-1-(tetrahydro-2H-pyran-2-yl)-1H-pyrazolo[3,4-d]pyrimidin-6-yl]phenyl}carbamate] | 2550
23 | CCNC(=O)Nc1ccc(-c2nc(N3CCOCC3)c3cnn(C4CCN(C(=O)c5cccnc5)CC4)c3n2)c(F)c1 [Compound 706, 1-ethyl-3-(3-fluoro-4-{4-morpholin-4-yl-1-[1-(pyridin-3-ylcarbonyl)piperidin-4-yl]-1H-pyrazolo[3,4-d]pyrimidin-6-yl}phenyl)urea] | 1620
24 | CNC(=NC#N)Nc1ccc(-c2nc(N3CCOCC3)c3cnn(C4CCN(C(=O)c5cccnc5)CC4)c3n2)cc1 [Compound 656, 2-cyano-1-methyl-3-(4-{4-morpholin-4-yl-1-[1-(pyridin-3-ylcarbonyl)piperidin-4-yl]-1H-pyrazolo[3,4-d]pyrimidin-6-yl}phenyl)guanidine] | 382
25 | CN(C)CCC(=O)Nc1ccc(-c2nc(N3CCOCC3)c3cnn(-c4ccccc4)c3n2)cc1 [Compound 133] | 223
26 | O=C(Nc1ccccc1)Nc1cc(F)c(-c2nc(N3CCOCC3)c3cnn(C4CCN(C(=O)c5cccnc5)CC4)c3n2)cc1F [Compound 713, 1-(2,5-difluoro-4-{4-morpholin-4-yl-1-[1-(pyridin-3-ylcarbonyl)piperidin-4-yl]-1H-pyrazolo[3,4-d]pyrimidin-6-yl}phenyl)-3-phenylurea] | 173
27 | CNC(=NC#N)Nc1ccc(-c2nc(N3CCOCC3)c3cnn(C4CCN(Cc5cccnc5)CC4)c3n2)cc1 [Compound 651, 2-cyano-1-methyl-3-(4-{4-morpholin-4-yl-1-[1-(pyridin-3-ylmethyl)piperidin-4-yl]-1H-pyrazolo[3,4-d]pyrimidin-6-yl}phenyl)guanidine] | 774
28 | COC(=O)Nc1ccc(-c2nc(N3CCOCC3)c3cnn(C4CCN(C(=O)c5ccc(F)cc5)CC4)c3n2)cc1 [Compound 689, methyl (4-{1-[1-(4-fluorobenzoyl)piperidin-4-yl]-4-morpholin-4-yl-1H-pyrazolo[3,4-d]pyrimidin-6-yl}phenyl)carbamate] | 989
29 | CNC(=O)Nc1ccc(-c2nc(N3CCOCC3)c3cnn(C4CCN(Cc5ccc(OC)c(O)c5)CC4)c3n2)cc1 [Compound 643, 1-(4-{1-[1-(3-hydroxy-4-methoxybenzyl)piperidin-4-yl]-4-morpholin-4-yl-1H-pyrazolo[3,4-d]pyrimidin-6-yl}phenyl)-3-methylurea] | 57
30 | CNCCNC(=O)Nc1ccc(-c2nc(N3CCOCC3)c3cnn(C4CCN(C(=O)c5ccccc5)CC4)c3n2)cc1 [Compound 631, 1-{4-[1-(1-benzoylpiperidin-4-yl)-4-morpholin-4-yl-1H-pyrazolo[3,4-d]pyrimidin-6-yl]phenyl}-3-[2-(methylamino)ethyl]urea] | 48
31 | COc1cccc(C(=O)Nc2ccc(-c3nc(N4CCOCC4)c4cn[nH]c4n3)cc2)c1 [Compound 277, 3-methoxy-N-[4-(4-morpholin-4-yl-1H-pyrazolo[3,4-d]pyrimidin-6-yl)phenyl]benzamide] | 440
32 | Cn1ncc2c(N3CCOCC3)nc(-c3ccoc3)nc21 [Compound 3] | 915
33 | Nc1ccc(-c2nc(N3CCOCC3)c3cnn(C4CCN(C(=O)c5cccnc5)CC4)c3n2)c(F)c1 [Compound 704, 3-fluoro-4-{4-morpholin-4-yl-1-[1-(pyridin-3-ylcarbonyl)piperidin-4-yl]-1H-pyrazolo[3,4-d]pyrimidin-6-yl}aniline] | 4030
34 | CNC(=O)Nc1ccc(-c2nc(N3CCOCC3)c3cnn(C4CCN(Cc5ccncc5)CC4)c3n2)cc1 [Compound 670, 1-methyl-3-(4-{4-morpholin-4-yl-1-[1-(pyridin-4-ylmethyl)piperidin-4-yl]-1H-pyrazolo[3,4-d]pyrimidin-6-yl}phenyl)urea] | 112
35 | CC(=O)Nc1ccc(-c2nc(N3CCOCC3)c3cnn(C4CCCCO4)c3n2)cc1 (centres unmarked) [Compound 224, N-{4-[4-morpholin-4-yl-1-(tetrahydro-2H-pyran-2-yl)-1H-pyrazolo[3,4-d]pyrimidin-6-yl]phenyl}acetamide] | 1650
